Results published in PMC4890168 (Journal of medicinal chemistry, 2016).

What was measured:
PKA = PKA (Homo sapiens, UniProt P17612); experiment: PKA inhibition, ADP-Glo Kinase Assay
GRK2 = molecular target: T1, GRK2 (Bos taurus, UniProt P21146, S670A, species not given); experiment: GRK2 kinase inhibition; format: biochemical
T1 sequence (P21146 1-689 S670A): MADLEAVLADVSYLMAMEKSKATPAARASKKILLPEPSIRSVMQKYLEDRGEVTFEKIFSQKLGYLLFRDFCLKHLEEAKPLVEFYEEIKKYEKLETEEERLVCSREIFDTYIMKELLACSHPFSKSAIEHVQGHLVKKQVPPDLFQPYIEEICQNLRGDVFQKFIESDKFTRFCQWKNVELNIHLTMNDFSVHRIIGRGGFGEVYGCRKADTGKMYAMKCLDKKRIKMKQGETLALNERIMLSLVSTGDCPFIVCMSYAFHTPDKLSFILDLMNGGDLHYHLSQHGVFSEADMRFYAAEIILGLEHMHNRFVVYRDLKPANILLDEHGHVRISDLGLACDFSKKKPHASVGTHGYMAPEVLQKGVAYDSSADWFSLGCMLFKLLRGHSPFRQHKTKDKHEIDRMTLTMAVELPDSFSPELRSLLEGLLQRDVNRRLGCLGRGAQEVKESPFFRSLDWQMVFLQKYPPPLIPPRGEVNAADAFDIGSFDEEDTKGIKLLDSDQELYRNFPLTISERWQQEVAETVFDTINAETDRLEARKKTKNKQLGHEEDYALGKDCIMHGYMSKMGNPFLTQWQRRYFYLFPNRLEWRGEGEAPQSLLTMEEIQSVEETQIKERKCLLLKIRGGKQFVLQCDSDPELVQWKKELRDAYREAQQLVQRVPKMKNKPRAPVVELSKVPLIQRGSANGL

[1] = system: cardiomyocytes isolated from adult mice; experiment: Contractility in mouse cardiomyocytes; details: for potency at stimulating cardiomyocyte contraction: compared with lead 2, isoproterenol stimulation
ROCK1 = ROCK1 (Homo sapiens, UniProt Q13464); experiment: ROCK1 inhibition, ADP-Glo Kinase Assay
Chain of ROCK1 (Q13464 whole entry, species assumed): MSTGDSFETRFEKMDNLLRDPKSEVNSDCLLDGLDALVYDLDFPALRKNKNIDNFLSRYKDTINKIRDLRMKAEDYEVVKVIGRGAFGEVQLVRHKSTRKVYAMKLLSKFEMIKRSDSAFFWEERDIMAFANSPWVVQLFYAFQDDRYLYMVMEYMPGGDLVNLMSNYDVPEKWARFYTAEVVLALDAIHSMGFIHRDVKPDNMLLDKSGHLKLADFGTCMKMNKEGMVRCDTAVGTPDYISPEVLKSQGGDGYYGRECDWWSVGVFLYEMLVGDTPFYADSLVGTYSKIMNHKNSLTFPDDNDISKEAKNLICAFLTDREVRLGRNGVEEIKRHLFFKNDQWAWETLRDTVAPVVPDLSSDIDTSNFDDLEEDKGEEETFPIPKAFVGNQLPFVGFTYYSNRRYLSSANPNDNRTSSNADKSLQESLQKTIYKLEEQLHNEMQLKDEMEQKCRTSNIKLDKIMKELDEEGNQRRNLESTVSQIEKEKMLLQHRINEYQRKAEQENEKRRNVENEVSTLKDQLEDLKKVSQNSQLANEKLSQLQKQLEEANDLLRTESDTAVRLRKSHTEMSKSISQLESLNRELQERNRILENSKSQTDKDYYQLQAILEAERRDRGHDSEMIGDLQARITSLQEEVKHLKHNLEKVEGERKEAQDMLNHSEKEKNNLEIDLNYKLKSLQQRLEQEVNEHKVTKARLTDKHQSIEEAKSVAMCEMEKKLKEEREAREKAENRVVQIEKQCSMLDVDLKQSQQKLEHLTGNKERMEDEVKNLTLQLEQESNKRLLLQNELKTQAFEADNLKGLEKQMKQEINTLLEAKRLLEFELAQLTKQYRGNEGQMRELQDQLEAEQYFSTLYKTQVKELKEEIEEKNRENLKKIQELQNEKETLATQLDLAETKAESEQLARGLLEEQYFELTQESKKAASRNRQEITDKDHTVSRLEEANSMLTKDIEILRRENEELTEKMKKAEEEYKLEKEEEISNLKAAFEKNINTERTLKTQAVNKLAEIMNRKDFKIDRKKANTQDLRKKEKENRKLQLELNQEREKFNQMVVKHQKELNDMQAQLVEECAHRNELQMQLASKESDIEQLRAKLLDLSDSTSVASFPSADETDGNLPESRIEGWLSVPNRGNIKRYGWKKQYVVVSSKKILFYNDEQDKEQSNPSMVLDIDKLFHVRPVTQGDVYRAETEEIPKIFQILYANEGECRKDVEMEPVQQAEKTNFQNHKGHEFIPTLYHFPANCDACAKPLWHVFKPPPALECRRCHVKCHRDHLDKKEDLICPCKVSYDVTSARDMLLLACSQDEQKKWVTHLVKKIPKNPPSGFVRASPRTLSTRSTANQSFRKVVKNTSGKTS

Row | IC50 (PKA) [µM] | Structure (SMILES) | other results
1 | > 100 | CC1=C(C(=O)Nc2ccc3[nH]ncc3c2)C(c2ccc(F)c(C(=O)NCc3ncccc3C)c2)NC(=O)N1 (stereo not shown) [Compound 12q, 4-(4-Fluoro-3-(((3-methylpyridin-2-yl)methyl)carbamoyl)phenyl)-N-(1H-indazol-5-yl)-6-methyl-2-oxo-1,2,3,4-tetrahydropyrimidine-5-carboxamide] | 
2 |  | CC1=C(C(=O)Nc2ccc3[nH]ncc3c2)C(c2ccc(F)c(C(=O)O)c2)NC(=O)N1 (stereo not shown) [Compound 10, 5-(5-((1H-Indazol-5-yl)carbamoyl)-6-methyl-2-oxo-1,2,3,4-tetrahydropyrimidin-4-yl)-2-fluorobenzoic acid] | loss in potency against GRK2 relative to 2 (GRK2): 20 fold; loss in potency against PKA relative to 2 (PKA): 2 fold
3 | > 100 | CC1=C(C(=O)Nc2ccc3[nH]ncc3c2)C(c2ccc(F)c(C(=O)NCc3cccc(F)c3)c2)NC(=O)N1 (stereo not shown) [Compound 12c, 4-(4-Fluoro-3-((3-fluorobenzyl)carbamoyl)phenyl)-N-(1H-indazol-5-yl)-6-methyl-2-oxo-1,2,3,4-tetrahydropyrimidine-5-carboxamide] | 
4 | > 100 | CNC(=O)c1cc(C2NC(=O)NC(C)=C2C(=O)Nc2ccc3[nH]ncc3c2)ccc1F (stereo not shown) [Compound 12a, 4-(4-Fluoro-3-(methylcarbamoyl)phenyl)-N-(1H-indazol-5-yl)-6-methyl-2-oxo-1,2,3,4-tetrahydropyrimidine-5-carboxamide] | loss in potency against GRK2 relative to 2 (GRK2): 5 fold
5 | > 100 | CC1=C(C(=O)Nc2ccc3c(c2)OCO3)C(c2ccc(F)c(C(=O)NCc3ccccn3)c2)NC(=O)N1 (stereo not shown) [Compound 24, N-(Benzo[d][1,3]dioxol-5-yl)-4-(4-fluoro-3-((pyridin-2-ylmethyl)carbamoyl)phenyl)-6-methyl-2-oxo-1,2,3,4-tetrahydropyrimidine-5-carboxamide] | kinase inhibition (GRK2; GRK2, GRK1, GRK5, PKA (Table 2)): completely inactive
6 | > 100 | CC1=C(C(=O)Nc2ccc3[nH]ncc3c2)C(c2ccc(F)c(C(=O)NCc3c(C(F)(F)F)cccc3C(F)(F)F)c2)NC(=O)N1 (stereo not shown) [Compound 12o, 4-(3-((2,6-Bis(trifluoromethyl)benzyl)carbamoyl)-4-fluorophenyl)-N-(1H-indazol-5-yl)-6-methyl-2-oxo-1,2,3,4-tetrahydropyrimidine-5-carboxamide] | 
7 | > 100 | CC1=C(C(=O)Nc2ccc3[nH]ncc3c2)C(c2ccc(F)c(CC(=O)NCc3c(C)cccc3C)c2)NC(=O)N1 (stereo not shown) [Compound 13a, 4-(3-(2-((2,6-Dimethylbenzyl)amino)-2-oxoethyl)-4-fluorophenyl)-N-(1H-indazol-5-yl)-6-methyl-2-oxo-1,2,3,4-tetrahydropyrimidine-5-carboxamide] | 
8 | > 100 | CC1=C(C(=O)Nc2ccc3[nH]ncc3c2)C(c2ccc(F)c(C(=O)NCCc3ccncc3)c2)NC(=O)N1 (stereo not shown) [Compound 12j, 4-(4-Fluoro-3-((2-(pyridin-4-yl)ethyl)carbamoyl)phenyl)-N-(1H-indazol-5-yl)-6-methyl-2-oxo-1,2,3,4-tetrahydropyrimidine-5-carboxamide] | 
9 | > 100 | CC1=C(C(=O)Nc2ccc3[nH]ncc3c2)C(c2ccc(F)c(C(=O)NCCc3c(C)cccc3C)c2)NC(=O)N1 (stereo not shown) [Compound 12r, 4-(3-((2,6-Dimethylphenethyl)carbamoyl)-4-fluorophenyl)-N-(1H-indazol-5-yl)-6-methyl-2-oxo-1,2,3,4-tetrahydropyrimidine-5-carboxamide] | 
10 | > 100 | COc1cccc(OC)c1CNC(=O)Cc1cc(C2NC(=O)NC(C)=C2C(=O)Nc2ccc3[nH]ncc3c2)ccc1F (stereo not shown) [Compound 13c, 4-(3-(2-((2,6-Dimethoxybenzyl)amino)-2-oxoethyl)-4-fluorophenyl)-N-(1H-indazol-5-yl)-6-methyl-2-oxo-1,2,3,4-tetrahydropyrimidine-5-carboxamide] | 
11 | > 100 | COc1cccc(CNC(=O)c2cc(C3NC(=O)NC(C)=C3C(=O)Nc3ccc4[nH]ncc4c3)ccc2F)c1 (stereo not shown) [Compound 12f, 4-(4-Fluoro-3-((3-methoxybenzyl)carbamoyl)phenyl)-N-(1H-indazol-5-yl)-6-methyl-2-oxo-1,2,3,4-tetrahydropyrimidine-5-carboxamide] | 
12 | > 100 | CC1=C(C(=O)N(C)c2ccc3[nH]ncc3c2)C(c2ccc(F)c(C(=O)NCc3c(C)cccc3C)c2)NC(=O)N1 (stereo not shown) [Compound 20, 4-(3-((2,6-Dimethylbenzyl)carbamoyl)-4-fluorophenyl)-N-(1H-indazol-5-yl)-N,6-dimethyl-2-oxo-1,2,3,4-tetrahydropyrimidine-5-carboxamide] | decrease in potency at GRK2 compared to 12m (GRK2): ~70 fold
13 | > 100 | CC1=C(C(=O)Nc2ccc3[nH]ncc3c2)C(c2ccc(F)c(C(=O)NCc3ccccc3)c2)NC(=O)N1 (stereo not shown) [Compound 12b, 4-(3-(Benzylcarbamoyl)-4-fluorophenyl)-N-(1H-indazol-5-yl)-6-methyl-2-oxo-1,2,3,4-tetrahydropyrimidine-5-carboxamide] | 
14 |  | CC1=C(C(=O)Nc2ccc3[nH]ncc3c2)C(c2ccc(F)cc2)NC(=O)N1 (stereo not shown) [Compound 2, GSK180736A, reference compound] | concentration showing similar efficacy as paroxetine (10 μM) on contractility ([1]; isoproterenol 0.5 μM, 10 min pretreatment): 1 µM
15 | > 100 | CC1=C(C(=O)Nc2ccc3[nH]ncc3c2)C(c2ccc(F)c(C(=O)NCc3c(F)cccc3F)c2)NC(=O)N1 (stereo not shown) [Compound 12d, 4-(3-((2,6-Difluorobenzyl)carbamoyl)-4-fluorophenyl)-N-(1H-indazol-5-yl)-6-methyl-2-oxo-1,2,3,4-tetrahydropyrimidine-5-carboxamide] | potency at stimulating cardiomyocyte contraction [1]: equivalent to or slightly more potent than the lead 2
16 | > 100 | COc1ccc(CNC(=O)c2cc(C3NC(=O)NC(C)=C3C(=O)Nc3ccc4[nH]ncc4c3)ccc2F)cc1 (stereo not shown) [Compound 12g, 4-(4-Fluoro-3-((4-methoxybenzyl)carbamoyl)phenyl)-N-(1H-indazol-5-yl)-6-methyl-2-oxo-1,2,3,4-tetrahydropyrimidine-5-carboxamide] | 
17 | > 100 | CC1=C(C(=O)Nc2ccc3[nH]ncc3c2)C(c2ccc(F)c(C(=O)NCc3c(C)cccc3C)c2)NC(=O)N1 (stereo not shown) [Compound 12m, 4-(3-((2,6-Dimethylbenzyl)carbamoyl)-4-fluorophenyl)-N-(1H-indazol-5-yl)-6-methyl-2-oxo-1,2,3,4-tetrahydropyrimidine-5 carboxamide] | potency at stimulating cardiomyocyte contraction [1]: equivalent to or slightly more potent than the lead 2
18 | > 100 | Fc1ccc([C@@H]2CCNC[C@H]2COc2ccc3c(c2)OCO3)cc1 [Paroxetine, paroxetine, reference compound] | 
19 | > 100 | COc1ccccc1CNC(=O)c1cc(C2NC(=O)NC(C)=C2C(=O)Nc2ccc3[nH]ncc3c2)ccc1F (stereo not shown) [Compound 12e, 4-(4-Fluoro-3-((2-methoxybenzyl)carbamoyl)phenyl)-N-(1H-indazol-5-yl)-6-methyl-2-oxo-1,2,3,4-tetrahydropyrimidine-5-carboxamide] | 
20 | > 100 | CC1=C(C(=O)Nc2ccc3[nH]ncc3c2)C(c2ccc(F)c(C(=O)NCc3ccccn3)c2)NC(=O)N1 (stereo not shown) [Compound 12h, 4-(4-Fluoro-3-((pyridin-2-ylmethyl)carbamoyl)phenyl)-N-(1H-indazol-5-yl)-6-methyl-2-oxo-1,2,3,4-tetrahydropyrimidine-5-carboxamide] | IC50 (ROCK1): ~0.01 µM; increase in potency for ROCK1 over 2 (ROCK1): 10 fold
21 | > 100 | CC1=C(C(=O)Nc2ccc3[nH]ncc3c2)C(c2ccc(F)c(C(=O)NCc3cc(C(F)(F)F)cc(C(F)(F)F)c3)c2)NC(=O)N1 (stereo not shown) [Compound 12p, 4-(3-((3,5-Bis(trifluoromethyl)benzyl)carbamoyl)-4-fluorophenyl)-N-(1H-indazol-5-yl)-6-methyl-2-oxo-1,2,3,4-tetrahydropyrimidine-5-carboxamide] | 
22 | > 100 | CC1=C(C(=O)Nc2ccc3[nH]ncc3c2)C(c2ccc(F)c(C(=O)NCCc3ccccn3)c2)NC(=O)N1 (stereo not shown) [Compound 12i, 4-(4-Fluoro-3-((2-(pyridin-2-yl)ethyl)carbamoyl)phenyl)-N-(1H-indazol-5-yl)-6-methyl-2-oxo-1,2,3,4-tetrahydropyrimidine-5-carboxamide] | 
23 | > 100 | CC1=C(C(=O)Nc2ccc3[nH]ncc3c2)C(c2ccc(F)c(CC(=O)NCc3c(C(F)(F)F)cccc3C(F)(F)F)c2)NC(=O)N1 (stereo not shown) [Compound 13b, 4-(3-(2-((2,6-Bis(trifluoromethyl)benzyl)amino)-2-oxoethyl)-4-fluorophenyl)-N-(1H-indazol-5-yl)-6-methyl-2-oxo-1,2,3,4-tetrahydropyrimidine-5-carboxamide] | 
